pKd: −log10 of the molar value. In brackets after ≈: the same amount, converted by molar mass.
Experiments:
Rattus norvegicus [1] = organism: Rattus norvegicus; experiment: GnRH antagonistic dose of compound for 8 rats ovulation out of total 10 using anti-ovulatory assay; format: functional
Rattus norvegicus [2] = organism: Rattus norvegicus; experiment: Compound was tested in vitro for its ability to inhibit histamine release from rat mast cells.; format: functional; conditions: read-out: ED50 (the source's name)
Rattus norvegicus [3] = organism: Rattus norvegicus; experiment: Dissociation constant was determined in rat pituitary cells.; format: cell-based; conditions: pituitary gland cell
[4] = molecular target: T1, Gonadotropin-releasing hormone receptor (Rattus norvegicus) (UniProt P30969); experiment: Inhibition of GnRH-mediated LH secretion by cultured pituitary cells; format: functional, cell-based; conditions: Pituitary gland cell
T1 sequence (whole entry): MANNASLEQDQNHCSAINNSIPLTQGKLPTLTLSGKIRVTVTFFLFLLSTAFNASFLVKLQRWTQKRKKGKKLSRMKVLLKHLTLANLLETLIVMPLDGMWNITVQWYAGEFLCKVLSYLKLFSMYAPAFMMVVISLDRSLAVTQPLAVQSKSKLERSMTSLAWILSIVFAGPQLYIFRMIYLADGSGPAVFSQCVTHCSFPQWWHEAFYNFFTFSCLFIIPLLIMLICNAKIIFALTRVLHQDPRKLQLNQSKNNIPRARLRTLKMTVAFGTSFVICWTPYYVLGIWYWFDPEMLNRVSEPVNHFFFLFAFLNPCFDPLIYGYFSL

Rattus norvegicus [5] = organism: Rattus norvegicus; experiment: GnRH antagonistic dose of compound for 9 rats ovulation out of total 20 using anti-ovulatory assay; format: functional
Rattus norvegicus [6] = organism: Rattus norvegicus; experiment: GnRH antagonistic dose of compound for 10 rats ovulation out of total 10 using anti-ovulatory assay; format: functional
Rattus norvegicus [7] = organism: Rattus norvegicus; experiment: GnRH antagonistic dose of compound for 11 rats ovulation out of total 15 using anti-ovulatory assay; format: functional
Rattus norvegicus [8] = organism: Rattus norvegicus; experiment: Compound was evaluated for time course of action on LH secretion in the castrated male rat at a time interval of 1 hr at 25 microg; format: functional
Rattus norvegicus [9] = organism: Rattus norvegicus; experiment: Compound was evaluated for time course of action on LH secretion in the castrated male rat at a time interval of 19 hr at 25 microg; format: functional
Rattus norvegicus [10] = organism: Rattus norvegicus; experiment: Compound was evaluated for time course of action on LH secretion in the castrated male rat at a time interval of 43 hr at 25 microg; format: functional
Rattus norvegicus [11] = organism: Rattus norvegicus; experiment: Compound was evaluated for time course of action on LH secretion in the castrated male rat at a time interval of 49 h at 125 microg; format: functional
Rattus norvegicus [12] = organism: Rattus norvegicus; experiment: Compound was evaluated for time course of action on LH secretion in the castrated male rat at a time interval of 49 hr at 25 microg; format: functional
Rattus norvegicus [13] = organism: Rattus norvegicus; experiment: Compound was evaluated for time course of action on LH secretion in the castrated male rat at a time interval of 67 hr at 25 microg; format: functional
Rattus norvegicus [14] = organism: Rattus norvegicus; experiment: Compound was evaluated for time course of action on LH secretion in the castrated male rat at a time interval of 73 hr at 25 microg; format: functional
Rattus norvegicus [15] = organism: Rattus norvegicus; experiment: Compound was evaluated for time course of action on LH secretion in the castrated male rat at a time interval of 0 hr at 25 microg; format: functional
Rattus norvegicus [16] = organism: Rattus norvegicus; experiment: Compound was evaluated for time course of action on LH secretion in the castrated male rat at a time interval of 1 hr at 125 microg; format: functional
Rattus norvegicus [17] = organism: Rattus norvegicus; experiment: Compound was evaluated for time course of action on LH secretion in the castrated male rat at a time interval of 43 hr at 125 microg; format: functional
Rattus norvegicus [18] = organism: Rattus norvegicus; experiment: Compound was evaluated for time course of action on LH secretion in the castrated male rat at a time interval of 67 hr at 125 microg; format: functional
Rattus norvegicus [19] = organism: Rattus norvegicus; experiment: Compound was evaluated for time course of action on LH secretion in the castrated male rat at a time interval of 0 hr at 125 microg; format: functional
Rattus norvegicus [20] = organism: Rattus norvegicus; experiment: Compound was evaluated for time course of action on LH secretion in the castrated male rat at a time interval of 19 hr at 125 microg; format: functional
Rattus norvegicus [21] = organism: Rattus norvegicus; experiment: Compound was evaluated for time course of action on LH secretion in the castrated male rat at a time interval of 73 hr at 125 microg; format: functional

How did the ED100 (Rattus norvegicus [1]) turn out when `COc1ccc(C(=O)CC[C@@H](NC(=O)[C@H](CCCN=C(N)N)NC(=O)[C@H](CO)NC(=O)[C@@H](Cc2cccnc2)NC(=O)[C@@H](Cc2ccc(Cl)cc2)NC(=O)[C@@H](Cc2ccc3ccccc3c2)NC(C)=O)C(=O)N(C)[C@@H](CC(C)C)C(=O)N[C@@H](CCCN=C(N)N)C(=O)N2CCC[C@H]2C(=O)N[C@H](C)C(N)=O)cc1` was run?
The ED100 was 1 µg/kg.

And the EC50 (Rattus norvegicus [2])?
The EC50 was 4.6 µg/mL (≈ 3.07 µM).

How did the EC50 (Rattus norvegicus [2]) turn out when `CC(=O)N1CCC[C@@H]1C(=O)N[C@H](Cc1ccc(F)cc1)C(=O)N[C@H](Cc1c[nH]c2ccccc12)C(=O)N[C@@H](CO)C(=O)N[C@@H](Cc1ccc(O)cc1)C(=O)N[C@H](Cc1c[nH]c2ccccc12)C(=O)N[C@@H](CC(C)C)C(=O)N[C@@H](CCCN=C(N)N)C(=O)N1CCC[C@H]1C(=O)NCC(=O)O` was run?
Its EC50 is 39 µg/mL (≈ 28.5 µM).

Which results are given for `CC(=O)N[C@H](Cc1ccc2ccccc2c1)C(=O)N[C@H](Cc1ccc(Cl)cc1)C(=O)N[C@H](Cc1cccnc1)C(=O)N[C@@H](CO)C(=O)N[C@@H](CCCN=C(N)N)C(=O)N[C@H](Cc1cn(C=O)c2ccccc12)C(=O)N[C@@H](CC(C)C)C(=O)N[C@@H](CCCN=C(N)N)C(=O)N1CCC[C@H]1C(=O)N[C@H](C)C(=O)O`?
pKd (Rattus norvegicus [3]): 9.32; Relative potency [4]: 0.95; ED100 (Rattus norvegicus [5]): 0.5 µg/kg; EC50 (Rattus norvegicus [2]): 3.4 µg/mL (≈ 2.29 µM)

`COc1ccc(C(=O)CC[C@@H](NC(=O)[C@H](Cc2ccc(O)cc2)NC(=O)[C@H](CO)NC(=O)[C@@H](Cc2cccnc2)NC(=O)[C@@H](Cc2ccc(Cl)cc2)NC(=O)[C@H]2CCCN2C(C)=O)C(=O)N(C)[C@@H](CC(C)C)C(=O)N[C@@H](CCCN=C(N)N)C(=O)N2CCC[C@H]2C(=O)N[C@H](C)C(=O)O)cc1` was tested. Which ED100 (Rattus norvegicus [6]) did it give?
The ED100 was 5 µg/kg.

What about the EC50 (Rattus norvegicus [2]) of the same molecule?
The EC50 was 30.3 µg/mL (≈ 21.5 µM).

`CC(=O)N[C@H](Cc1ccc2ccccc2c1)C(=O)N[C@H](Cc1ccc(Cl)cc1)C(=O)N[C@H](Cc1cccnc1)C(=O)N[C@@H](CO)C(=O)N[C@@H](CCCN=C(N)N)C(=O)N[C@H](Cc1ccc(O)cc1)C(=O)N[C@@H](CC(C)C)C(=O)N[C@@H](CCCN=C(N)N)C(=O)N1CCC[C@H]1C(=O)N[C@H](C)C(N)=O` was tested. Which ED100 (Rattus norvegicus [7]) did it give?
The ED100 was 0.5 µg/kg.

What about the EC50 (Rattus norvegicus [2]) of the same molecule?
The EC50 was 3.7 µg/mL (≈ 2.59 µM).

How did the EC50 (Rattus norvegicus [2]) turn out when `CC(=O)N[C@H](Cc1ccc2ccccc2c1)C(=O)N[C@H](Cc1ccc(F)cc1)C(=O)N[C@H](Cc1c[nH]c2ccccc12)C(=O)N[C@@H](CO)C(=O)N[C@@H](Cc1ccc(O)cc1)C(=O)N[C@H](CCCN=C(N)N)C(=O)N[C@@H](CC(C)C)C(=O)N[C@@H](CCCN=C(N)N)C(=O)N1CCC[C@H]1C(=O)NCC(=O)O` was run?
The EC50 was 0.17 µg/mL (≈ 0.118 µM).

Which LH level (Rattus norvegicus [8]) does the source give for `CC(=O)N1CCC[C@@H]1C(=O)N[C@H](Cc1ccc(F)cc1)C(=O)N[C@H](Cc1c[nH]c2ccccc12)C(=O)N[C@@H](CO)C(=O)N[C@@H](CCCN=C(N)N)C(=O)N[C@H](Cc1ccc2ccccc2c1)C(=O)N[C@@H](CC(C)C)C(=O)N[C@@H](CCCN=C(N)N)C(=O)N1CCC[C@H]1C(=O)NCC(N)=O` here?
The LH level was 5.68 ng/mL.

What about the LH level (Rattus norvegicus [9]) of the same molecule?
The LH level was 2.78 ng/mL.

What about the LH level (Rattus norvegicus [10]) of the same molecule?
Its LH level is 4.38 ng/mL.

And the LH level (Rattus norvegicus [11])?
Its LH level is 2.5 ng/mL.

What about the LH level (Rattus norvegicus [12]) of the same molecule?
Its LH level is 5.46 ng/mL.

What about the LH level (Rattus norvegicus [13]) of the same molecule?
Its LH level is 8.23 ng/mL.

And the LH level (Rattus norvegicus [14])?
The LH level was 9.15 ng/mL.

What about the LH level (Rattus norvegicus [15]) of the same molecule?
Its LH level is 10.25 ng/mL.

What about the LH level (Rattus norvegicus [16]) of the same molecule?
Its LH level is 6.17 ng/mL.

What about the LH level (Rattus norvegicus [17]) of the same molecule?
Its LH level is 2.63 ng/mL.

And the LH level (Rattus norvegicus [18])?
Its LH level is 2.74 ng/mL.

What about the LH level (Rattus norvegicus [19]) of the same molecule?
Its LH level is 12.47 ng/mL.

What about the LH level (Rattus norvegicus [20]) of the same molecule?
The LH level was 3 ng/mL.

What about the LH level (Rattus norvegicus [21]) of the same molecule?
The LH level was 4.58 ng/mL.

Which ED100 (Rattus norvegicus [1]) does the source give for `CC(=O)N[C@H](Cc1ccc2ccccc2c1)C(=O)N[C@H](Cc1ccc(Cl)cc1)C(=O)N[C@H](Cc1cccnc1)C(=O)N[C@@H](CO)C(=O)N[C@@H](CCCN=C(N)N)C(=O)N[C@H](Cc1cn(Cc2ccccc2)cn1)C(=O)N[C@@H](CC(C)C)C(=O)N[C@@H](CCCN=C(N)N)C(=O)N1CCC[C@H]1C(=O)N[C@H](C)C(N)=O` here?
Its ED100 is 0.5 µg/kg.

What about the EC50 (Rattus norvegicus [2]) of the same molecule?
Its EC50 is 4.4 µg/mL (≈ 2.94 µM).

Source: ChEMBL document CHEMBL1123223, “New effective gonadotropin releasing hormone antagonists with minimal potency for histamine release in vitro” (J Med Chem, 1986)
